# Test: LogP by HPLC on reversed phase columns (EEC directive 79/831 Annex V.A8)
# Type: physicochemical
# Conditions: not given
# Experimental: In the above tables, measurement of LogP values was performed according to EEC directive 79/831 Annex V.A8 by HPLC (High Performance Liquid Chromatography) on reversed phase columns with the following methods: • ^[a]
# Calibration was done with straight-chain alkan2-ones (with 3 to 16 carbon atoms) with known LogP values (measurement of LogP values using retention times with linear interpolation between successive alkanones). Lambda-max-values were determined using UV-spectra from 200 nm to 400 nm and the peak values of the chromatographic signals.
row,Structure (SMILES),LogP
1,NC(=O)CC(NC(=O)c1sc(Cl)c(Cl)c1Cl)C(=O)O (stereo not drawn) [I.001],1.81^[a]
2,NC(=O)CCC(NC(=O)c1sc(Cl)c(Cl)c1Cl)C(=O)O (stereo not drawn) [I.002],1.73^[a]
3,O=C(NC(Cc1c[nH]c2ccccc12)C(=O)O)c1sc(Cl)c(Cl)c1Cl (stereo not drawn) [I.003],3.31^[a]
4,O=C(NC1CCNC1=O)c1sc(Cl)c(Cl)c1Cl (stereo not drawn) [I.004],1.98^[a]
5,COC(=O)C(NC(=O)c1sc(Cl)c(Cl)c1Cl)(C1CC1)C1CC1 [I.005],4.51^[a]
6,CCOC(=O)C(NC(=O)c1sc(Cl)c(Cl)c1Cl)C(=O)OCC [I.006],4.19^[a]
7,COC(=O)[C@@H](CC(N)=O)NC(=O)c1sc(Cl)c(Cl)c1Cl [I.014],2.11^[a]
8,CCOC(=O)C(NC(=O)c1sc(Cl)c(Cl)c1Cl)OC (stereo not drawn) [I.017],3.57^[a]
9,CCOC(=O)CN(OC)C(=O)c1sc(Cl)c(Cl)c1Cl [I.018],3.64^[a]
10,O=C1SCCC1NC(=S)c1sc(Cl)c(Cl)c1Cl (stereo not drawn) [I.019],4.37^[a]
11,COC(=O)C(C1CC1)N(O)C(=O)c1sc(Cl)c(Cl)c1Cl (stereo not drawn) [I.021],3.00^[a]
12,O=C(NC1CCSC1=O)c1sc(Cl)c(Cl)c1Cl (stereo not drawn) [I.023],3.17^[a]
13,CC1(C)SC(=O)C1NC(=O)c1sc(Cl)c(Cl)c1Cl (stereo not drawn) [I.024],4.04^[a]
14,CCOC(=O)CCNC(=O)c1sc(Cl)c(Cl)c1Cl [I.026],3.46^[a]
15,CC(C)OC(=O)C1(C2(NC(=O)c3sc(Cl)c(Cl)c3Cl)CC2)CC1 [I.027],5.35^[a]
16,O=C1CC(NC(=O)c2sc(Cl)c(Cl)c2Cl)CN1 (stereo not drawn) [I.028],1.86^[a]
17,O=C(NC1CCOC1=O)c1sc(Cl)c(Cl)c1Cl (stereo not drawn) [I.029],2.48^[a]
18,O=C1CC(NC(=O)c2sc(Cl)c(Cl)c2Cl)CCN1 (stereo not drawn) [I.030],1.93^[a]
19,O=C(NC1CCCNC1=O)c1sc(Cl)c(Cl)c1Cl (stereo not drawn) [I.031],2.20^[a]
20,N#CC1(NC(=O)c2sc(Cl)c(Cl)c2Cl)CC1 [I.032],2.88^[a]
21,N#CC(NC(=O)c1sc(Cl)c(Cl)c1Cl)c1ccccc1 (stereo not drawn) [I.034],3.92^[a]
22,N#CC(Cc1ccccc1)NC(=O)c1sc(Cl)c(Cl)c1Cl (stereo not drawn) [I.035],4.13^[a]

row,Structure (SMILES),LogP
1,CCSC(=O)CNC(=O)c1sc(Cl)c(Cl)c1Cl [I.036],3.75^[a]
2,CCOC(=O)C1(NC(=S)c2sc(Cl)c(Cl)c2Cl)CC1 [I.037],4.61^[a]
3,CCSC(=O)C(CC(C)C)NC(=O)c1sc(Cl)c(Cl)c1Cl (stereo not drawn) [I.039],5.54^[a]
4,CCSC(=O)C(NC(=O)c1sc(Cl)c(Cl)c1Cl)C(C)C (stereo not drawn) [I.040],5.34^[a]
5,O=C(CNC(=O)c1sc(Cl)c(Cl)c1Cl)SCc1ccccc1 [I.041],4.56^[a]
6,O=C(CNC(=O)c1sc(Cl)c(Cl)c1Cl)Sc1ccccc1 [I.042],4.27^[a]
7,O=C(N[C@H]1CCSC1=O)c1sc(Cl)c(Cl)c1Cl [I.043],3.24^[a]
8,CCOC(=O)C1(CNC(=O)c2sc(Cl)c(Cl)c2Cl)CC1 [I.045],4.27^[a]
9,CCOC(=O)C1(C2(NC(=O)c3sc(Cl)c(Cl)c3Cl)CC2)CC1 [I.047],4.83^[a]
10,O=C(NC1(C(=O)NO)CC1)c1sc(Cl)c(Cl)c1Cl [I.050],1.91^[a]
11,CSCCC(NC(=O)c1sc(Cl)c(Cl)c1Cl)C(=O)O (stereo not drawn) [I.051],3.01^[a]
12,CN(CC#N)C(=O)C1(NC(=O)c2sc(Cl)c(Cl)c2Cl)CC1 [I.052],2.44^[a]
13,CONC(=O)C1(NC(=O)c2sc(Cl)c(Cl)c2Cl)CC1 [I.055],2.14^[a]
14,O=C(NC(CO)C(=O)O)c1sc(Cl)c(Cl)c1Cl (stereo not drawn) [I.056],1.94^[a]
15,CCOC(=O)C1(NC(=O)c2sc(Cl)c(Cl)c2Cl)CN(C(=O)OC(C)(C)C)C1 [I.057],4.47^[a]
16,CCOC(=O)C(CC1CC1)NC(=O)c1sc(Cl)c(Cl)c1Cl (stereo not drawn) [I.058],4.81^[a]
17,NC(=O)C1(NC(=O)c2sc(Cl)c(Cl)c2Cl)CC1 [I.060],2.00^[a]
18,N#CCNC(=O)CNC(=O)c1sc(Cl)c(Cl)c1Cl [I.062],2.21^[a]
19,CN(CC#N)C(=O)CNC(=O)c1sc(Cl)c(Cl)c1Cl [I.063],2.62^[a]
20,CN(C)C(=O)CNC(=O)c1sc(Cl)c(Cl)c1Cl [I.065],2.47^[a]
21,CCOC(=O)C1(NC(=O)c2sc(Cl)c(Cl)c2Cl)CCCC1 [I.070],4.61^[a]
22,COC(=O)C1(NC(=O)c2sc(Cl)c(Cl)c2Cl)CCOCC1 [I.071],3.00^[a]

# Continued, values first:
row,LogP,Structure (SMILES)
1,3.99^[a],COC(=O)C1(NC(=O)c2sc(Cl)c(Cl)c2Cl)CCC(F)(F)CC1 [I.072]
2,2.07^[a],CNC(=O)CNC(=O)c1sc(Cl)c(Cl)c1Cl [I.073]
3,3.19^[a],COC(=O)[C@H](Cc1ccccc1)NC(=O)[C@H](CC(=O)O)NC(=O)c1sc(Cl)c(Cl)c1Cl [I.074]
4,2.57^[a],COC(=O)[C@H](CCC(=O)O)NC(=O)c1sc(Cl)c(Cl)c1Cl [I.075]
5,3.00^[a],COC(=O)C1(NC(=O)c2sc(Cl)c(Cl)c2Cl)CCOC1 (stereo not drawn) [I.076]
6,3.39^[a],CCOC(=O)C1(NC(=O)c2sc(Cl)c(Cl)c2Cl)CCOCC1 [I.077]
7,3.50^[a],COC(=O)C1(NC(=O)c2sc(Cl)c(Cl)c2Cl)CSC1 [I.080]
8,2.46^[a],COC(=O)[C@H](CC(=O)O)NC(=O)c1sc(Cl)c(Cl)c1Cl [I.081]
9,2.19^[a],COC(=O)[C@H](CCC(N)=O)NC(=O)c1sc(Cl)c(Cl)c1Cl [I.082]
10,2.78^[a],CCOC(=O)[C@H](CO)NC(=O)c1sc(Cl)c(Cl)c1Cl [I.083]
11,4.47^[a],CCOC(=O)C(CCSC)NC(=O)c1sc(Cl)c(Cl)c1Cl (stereo not drawn) [I.084]
12,3.92^[a],CCOC(=O)C1(NC(=O)c2sc(Cl)c(Cl)c2Cl)CSC1 [I.085]
13,4.81^[a],CC(C)(C)OC(=O)C1(NC(=O)c2sc(Cl)c(Cl)c2Cl)CC(F)(F)C1 [I.086]
14,4.48^[a],COC(=O)C1(NC(=O)c2sc(Cl)c(Cl)c2Cl)CC(C)(C)C1 [I.087]
15,3.65^[a],COC(=O)C1(NC(=O)c2sc(Cl)c(Cl)c2Cl)CC(F)(F)C1 [I.088]
16,5.45^[a],CCSC(=O)C(NC(=O)c1sc(Cl)c(Cl)c1Cl)C(C)C (stereo not drawn) [I.090]
17,6.17^[a],CCOC(=O)C(NC(=S)c1sc(Cl)c(Cl)c1Cl)C(C)C (stereo not drawn) [I.092]
18,5.61^[a],COC(=O)C(NC(=S)c1sc(Cl)c(Cl)c1Cl)C(C)C (stereo not drawn) [I.093]
19,3.43^[a],CCNC(=O)[C@@H](NC(=O)c1sc(Cl)c(Cl)c1Cl)C(C)C [I.094]
20,5.28^[a],CC(C)(C)OC(=O)C1(NC(=O)c2sc(Cl)c(Cl)c2Cl)CCC1 [I.097]
21,5.20^[a],CCCCOC(=O)C1(NC(=O)c2sc(Cl)c(Cl)c2Cl)CCC1 [I.099]
22,5.00^[a],O=C(NC1(C(=O)OCc2ccccc2)CCC1)c1sc(Cl)c(Cl)c1Cl [I.100]
23,4.74^[a],CCCOC(=O)C1(NC(=O)c2sc(Cl)c(Cl)c2Cl)CCC1 [I.101]
24,4.93^[a],O=C(NC1(C(=O)OC2CCC2)CCC1)c1sc(Cl)c(Cl)c1Cl [I.102]

row,LogP,Structure (SMILES)
1,5.84^[a],O=C(NC1(C(=O)OC2CCCCC2)CCC1)c1sc(Cl)c(Cl)c1Cl [I.103]
2,2.62^[a],NC(=S)C1(NC(=O)c2sc(Cl)c(Cl)c2Cl)CC1 [I.105]
3,2.45^[a],N#CNC(=O)CNC(=O)c1sc(Cl)c(Cl)c1Cl [I.106]
4,2.57^[a],N#CNC(=O)C1(NC(=O)c2sc(Cl)c(Cl)c2Cl)CC1 [I.107]
5,3.69^[a],COC(=O)C1(NC(=O)c2sc(Cl)c(Cl)c2Cl)CCC1 [I.112]
6,3.20^[a],CN(C)C(=S)C1(NC(=O)c2sc(Cl)c(Cl)c2Cl)CC1 [I.115]
7,3.78^[a],CCOC(=O)CN(C(=O)c1sc(Cl)c(Cl)c1Cl)C1CC1 [I.116]
8,2.49^[a],O=C(N[C@H]1CCOC1=O)c1sc(Cl)c(Cl)c1Cl [I.121]
9,5.11^[a],COC(=O)C(C)(Cc1ccccc1)NC(=O)c1sc(Cl)c(Cl)c1Cl (stereo not drawn) [I.122]
10,4.47^[a],CCOC(=O)C(NC(=O)c1sc(Cl)c(Cl)c1Cl)C(F)(F)F (stereo not drawn) [I.123]
11,2.93^[a],O=C(NC1CCCCNC1=O)c1sc(Cl)c(Cl)c1Cl (stereo not drawn) [I.125]
12,2.24^[a],O=C(N[C@H]1CCCNC1=O)c1sc(Cl)c(Cl)c1Cl [I.126]
13,3.94^[a],COC(=O)C(CCSC(C)=O)NC(=O)c1sc(Cl)c(Cl)c1Cl (stereo not drawn) [I.127]
14,2.89^[a],CNC(=S)CNC(=O)c1sc(Cl)c(Cl)c1Cl [I.128]
15,3.68^[a],CN(C)C(=S)CNC(=O)c1sc(Cl)c(Cl)c1Cl [I.129]
16,3.81^[a],CC(C)C(C#N)NC(=O)c1sc(Cl)c(Cl)c1Cl (stereo not drawn) [I.130]
17,5.00^[a],N#CC1(NC(=O)c2sc(Cl)c(Cl)c2Cl)CCC(c2ccccc2)CC1 (stereo not drawn) [I.131]
18,3.19^[a],CC(C)(C#N)NC(=O)c1sc(Cl)c(Cl)c1Cl [I.132]
19,3.72^[a],N#CC1(NC(=O)c2sc(Cl)c(Cl)c2Cl)CCSCC1 [I.133]
20,6.41^[a],N#CC1(NC(=O)c2sc(Cl)c(Cl)c2Cl)CCC(C2CCCCC2)CC1 (stereo not drawn) [I.134]
21,3.64^[a],COC(=O)CC(C)NC(=O)c1sc(Cl)c(Cl)c1Cl (stereo not drawn) [I.135]
22,3.36^[a],CCNC(=O)SC[C@H](NC(=O)c1sc(Cl)c(Cl)c1Cl)C(=O)OC [I.141]
23,1.70^[a],O=C(CNC(=O)c1sc(Cl)c(Cl)c1Cl)NO [I.148]
24,4.74^[a],CC(C)OC(=O)C1(NC(=O)c2sc(Cl)c(Cl)c2Cl)CCC1 [I.150]

# Same assay, conditions: reversed phase HPLC columns, given in the preparation examples; method not marked
row,chromatographic logP,Structure (SMILES)
1,2.39,"O=C(NC1(C(=O)O)CC1)c1sc(Cl)c(Cl)c1Cl [1-{[(3,4,5-trichloro-2-thienyl)carbonyl]amino}cyclopropanecarboxylic acid]"
